The target of one assay is Mu-type opioid receptor (Mus musculus, UniProt P42866). The assay is described as follows: Displacement of [3H]-DAMGO from mouse MOR expressed in HEK293 cells. It counts as cell-based. (In a radioligand displacement assay an active substance lowers the binding of a labelled ligand.)
Assay [1] concerns the target T1, Opioid receptors; mu and delta (Mus musculus, UniProt P42866+P32300). The assay is described as follows: Displacement of [3H]-DPDPE from mouse MOR/DOR expressed in HEK293 cells. It counts as cell-based.
The target in assay [2] is T1, Opioid receptors; mu and delta. Put plainly: Displacement of [3H]-DAMGO from mouse MOR/DOR expressed in HEK293 cells. Type of assay: cell-based.
Assay [3] concerns the target Delta-type opioid receptor (Mus musculus, UniProt P32300). Put plainly: Displacement of [3H]-DPDPE from mouse DOR expressed in HEK293 cells. It counts as cell-based.
For another assay, the species on record is Mus musculus. Put plainly: Selectivity ratio of Ki for mouse DOR to Ki for mouse MOR/DOR.

Sequence of Delta-type opioid receptor (P32300 whole entry): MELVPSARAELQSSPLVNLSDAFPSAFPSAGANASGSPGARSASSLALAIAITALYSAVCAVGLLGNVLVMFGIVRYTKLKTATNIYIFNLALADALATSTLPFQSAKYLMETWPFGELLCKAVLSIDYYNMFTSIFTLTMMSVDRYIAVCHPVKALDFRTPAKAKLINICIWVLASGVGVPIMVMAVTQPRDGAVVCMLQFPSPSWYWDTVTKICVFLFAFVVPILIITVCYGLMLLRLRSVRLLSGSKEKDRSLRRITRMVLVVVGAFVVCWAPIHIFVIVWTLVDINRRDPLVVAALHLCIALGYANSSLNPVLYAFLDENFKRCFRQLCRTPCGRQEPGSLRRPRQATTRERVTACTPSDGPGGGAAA
Sequence of Mu-type opioid receptor (P42866 whole entry): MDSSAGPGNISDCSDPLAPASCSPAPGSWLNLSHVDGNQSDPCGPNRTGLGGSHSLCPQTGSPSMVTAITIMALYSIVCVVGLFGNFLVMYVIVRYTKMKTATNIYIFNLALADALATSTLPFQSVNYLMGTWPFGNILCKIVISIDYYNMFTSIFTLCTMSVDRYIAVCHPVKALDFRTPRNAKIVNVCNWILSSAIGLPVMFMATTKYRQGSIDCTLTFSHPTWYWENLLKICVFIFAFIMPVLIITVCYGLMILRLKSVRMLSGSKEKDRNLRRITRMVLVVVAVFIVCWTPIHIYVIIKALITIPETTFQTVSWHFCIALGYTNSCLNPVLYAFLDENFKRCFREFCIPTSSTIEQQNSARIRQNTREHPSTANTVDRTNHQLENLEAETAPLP

`CN1CC[C@]23c4c5ccc(O)c4O[C@H]2[C@@H](NC(=O)COCC(=O)NCCCCCNC(=O)COCC(=O)Nc2cccc4c6c([nH]c24)[C@@H]2Oc4c(OCCc7ccccc7)ccc7c4[C@@]24CCN(CC2CC2)[C@H](C7)[C@]4(O)C6)CC[C@@]3(O)[C@H]1C5.Cl`: the inhibition constant (Ki) (in general, a measure of affinity in units of concentration, obtained from inhibition or displacement) at Mu-type opioid receptor was 9.77 nM; in assay [3], 204 nM. The negative logarithm of the Ki (pKi) (commonly −log10 of the Ki, conventionally taken in molar units) is 7.34 in assay [1] and 8.21 in assay [2].
Consider `CNC(=O)COCC(=O)NCCCCCNC(=O)COCC(=O)N[C@H]1CC[C@@]2(O)[C@H]3Cc4ccc(O)c5c4[C@@]2(CCN3C)[C@H]1O5`, for which the affinity on Mu-type opioid receptor corresponds to a Ki of 22.4 nM. Moreover, the negative logarithm of the Ki (pKi) in assay [2] was found to be 6.9.
`CCN(CC)C(=O)c1ccc(C(=C2CCNCC2)c2c(C)cc(NC(=O)COCC(=O)NCCCCCNC(=O)COCC(=O)N[C@@H]3CC[C@@]4(O)[C@H]5Cc6ccc(O)c7c6[C@@]4(CCN5CC4CC4)[C@H]3O7)cc2C)cc1.Cl`: the results for the Ki (at Mu-type opioid receptor; in assay [3]) were less than 1 nM and 20 nM, respectively. In the assay filed under Mus musculus, the Ratio Ki is 10. Moreover, the results for the pKi in assay [1] and in assay [2] were 8.6 and more than 9, respectively.
`CNC(=O)COCC(=O)NCCCCCNC(=O)COCC(=O)N[C@@H]1CC[C@@]2(O)[C@H]3Cc4ccc(O)c5c4[C@@]2(CCN3CC2CC2)[C@H]1O5`: the inhibition constant Ki at Mu-type opioid receptor was 0.324 nM; in assay [3], 30.9 nM. The pKi in assay [1] stood at 7.79; in assay [2] it was 8.38.
For `Nc1cccc2c3c([nH]c12)[C@@H]1Oc2c(OCCc4ccccc4)ccc4c2[C@@]12CCN(CC1CC1)[C@H](C4)[C@]2(O)C3`, in that order: 120 nM, 91.2 nM, 7.46 and 6.94.
For `CCN(CC)C(=O)c1ccc(C(=C2CCNCC2)c2c(C)cc(NC(=O)COCC(=O)NCCCCCNC(=O)COCC(=O)NC)cc2C)cc1.Cl`, in that order: 550 nM, 2880 nM, 5.78 and 5.92.
For `Cl.Oc1ccc2c3c1O[C@H]1c4[nH]c5ccccc5c4C[C@@]4(O)[C@@H](C2)N(CC2CC2)CC[C@]314` [NALTRINDOLE HYDROCHLORIDE], in that order: 16.6 nM, 2.63 nM, 8.26 and 8.46.

For the origin of these results see ChEMBL document CHEMBL2150958, “Tuned-Affinity Bivalent Ligands for the Characterization of Opioid Receptor Heteromers” (ACS Med Chem Lett, 2012).
